The source of these data is patent US20250312352A1, “GLP-1R MODULATING COMPOUNDS” (Gilead Sciences, Inc., priority 2021, published 2025).

In the test the target is T1, GLP-1R (Homo sapiens, UniProt P43220).
T1 construct: host or cells: CHO cells
Description: GLP-1R activation cAMP assay (Assay 1 or Assay 2). The format is cell-based. Particulars: cAMP increase in CHO cells stably expressing GLP-1R; compounds run on one of the two cAMP assays. Put shortly:
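CHO cells stably expressing human GLP-1R were incubated 1 h in HBSS/20 mM HEPES/0.1% BSA, then exposed to 10-point agonist dilutions for 30 min at 37 °C. cAMP increase was measured with an HTRF Gs dynamic kit; EC50 from sigmoidal fit of response versus log concentration.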

The structures appear in SMILES notation.

T1 sequence (P43220 24-463): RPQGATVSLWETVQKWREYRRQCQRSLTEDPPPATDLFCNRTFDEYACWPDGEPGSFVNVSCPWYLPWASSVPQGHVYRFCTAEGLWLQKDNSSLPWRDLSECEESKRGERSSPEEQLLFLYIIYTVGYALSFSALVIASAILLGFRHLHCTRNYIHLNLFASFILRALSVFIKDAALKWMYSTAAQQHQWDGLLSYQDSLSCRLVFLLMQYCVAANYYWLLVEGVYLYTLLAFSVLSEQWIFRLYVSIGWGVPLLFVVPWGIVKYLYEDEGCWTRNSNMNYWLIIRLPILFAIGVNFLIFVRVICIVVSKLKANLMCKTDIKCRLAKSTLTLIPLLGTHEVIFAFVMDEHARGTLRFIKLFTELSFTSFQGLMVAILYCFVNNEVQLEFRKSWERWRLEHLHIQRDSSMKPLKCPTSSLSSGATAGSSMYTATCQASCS

What is called EC50 is the concentration giving half of the maximal effect. `COc1cc(COc2cccc(-c3cc(F)c(Cc4nc5ccc(C(=O)O)cc5n4C[C@@H]4CCO4)cc3F)n2)nn1C` [Example 68, (S)-2-(2,5-difluoro-4-(6-((5-methoxy-1-methyl-1H-pyrazol-3-yl)methoxy)pyridin-2-yl)benzyl)-1-(oxetan-2-ylmethyl)-1H-benzo[d]imidazole-6-carboxylic acid] gave an EC50 of 5.37 nM.

For `O=C(O)c1cc(F)c2nc(Cc3ccc(-c4cccc(OCc5cc6n(n5)CCC6)n4)c(F)c3)n(C[C@@H]3CCO3)c2c1` [Example 69, (S)-2-(4-(6-((5,6-dihydro-4H-pyrrolo[1,2-b]pyrazol-2-yl)methoxy)pyridin-2-yl)-3-fluorobenzyl)-4-fluoro-1-(oxetan-2-ylmethyl)-1H-benzo[d]imidazole-6-carboxylic acid], the EC50 came out at 2.59 nM.

Turning to `O=C(O)c1ccc2nc(Cc3cc(F)c(-c4cccc(OCc5cc6n(n5)CCCC6)n4)cc3F)n(C[C@@H]3CCO3)c2c1` [Example 70, (S)-2-(2,5-difluoro-4-(6-((4,5,6,7-tetrahydropyrazolo[1,5-a]pyridin-2-yl)methoxy)pyridin-2-yl)benzyl)-1-(oxetan-2-ylmethyl)-1H-benzo[d]imidazole-6-carboxylic acid], a half-maximal response (EC50) required 1.93 nM.

Regarding `Cn1nc(COc2cccc(-c3cc(F)c(Cc4nc5ccc(C(=O)O)cc5n4C[C@@H]4CCO4)cc3F)n2)cc1C(F)(F)F` [Example 71, (S)-2-(2,5-difluoro-4-(6-((1-methyl-5-(trifluoromethyl)-1H-pyrazol-3-yl)methoxy)pyridin-2-yl)benzyl)-1-(oxetan-2-ylmethyl)-1H-benzo[d]imidazole-6-carboxylic acid], a half-maximal response (EC50) required 0.29 nM.

`Cc1cc(COc2cccc(-c3cc(F)c(Cc4nc5ccc(C(=O)O)cc5n4C[C@@H]4CCO4)cc3F)n2)nn1C` [Example 72, (S)-2-(4-(6-((1,5-dimethyl-1H-pyrazol-3-yl)methoxy)pyridin-2-yl)-2,5-difluorobenzyl)-1-(oxetan-2-ylmethyl)-1H-benzo[d]imidazole-6-carboxylic acid] gave an EC50 of 0.82 nM.

The compound `Cn1nc(COc2cccc(-c3cc(F)c(Cc4nc5ccc(C(=O)O)cc5n4C[C@@H]4CCO4)cc3F)n2)c2c1CCC2` [Example 73, (S)-2-(2,5-difluoro-4-(6-((1-methyl-1,4,5,6-tetrahydrocyclopenta[c]pyrazol-3-yl)methoxy)pyridin-2-yl)benzyl)-1-(oxetan-2-ylmethyl)-1H-benzo[d]imidazole-6-carboxylic acid] returned an EC50 of 1.1 nM. The EC50 values of the last two compounds are within 1.5-fold of each other.

As to `O=C(O)c1ccc2nc(Cc3cc(F)c(-c4cccc(OCc5cc6n(n5)CC(F)(F)C6)n4)cc3F)n(C[C@@H]3CCO3)c2c1` [Example 74, (S)-2-(4-(6-((5,5-difluoro-5,6-dihydro-4H-pyrrolo[1,2-b]pyrazol-2-yl)methoxy)pyridin-2-yl)-2,5-difluorobenzyl)-1-(oxetan-2-ylmethyl)-1H-benzo[d]imidazole-6-carboxylic acid], the midpoint of the response, the EC50, lay at 0.25 nM.

Take `O=C(O)c1ccc2nc(Cc3cc(F)c(-c4cccc(OCc5cc6n(n5)CC5(CC5)C6)n4)cc3F)n(C[C@@H]3CCO3)c2c1` [Example 75, (S)-2-(4-(6-((4′,6′-dihydrospiro[cyclopropane-1,5′-pyrrolo[1,2-b]pyrazol]-2′-yl)methoxy)pyridin-2-yl)-2,5-difluorobenzyl)-1-(oxetan-2-ylmethyl)-1H-benzo[d]imidazole-6-carboxylic acid]: the EC50 was 0.61 nM.

`CCn1cc(Cl)c(COc2cccc(-c3cc(F)c(Cc4nc5ccc(C(=O)O)cc5n4C[C@@H]4CCO4)cc3F)n2)n1` [Example 76, (S)-2-(4-(6-((4-chloro-1-ethyl-1H-pyrazol-3-yl)methoxy)pyridin-2-yl)-2,5-difluorobenzyl)-1-(oxetan-2-ylmethyl)-1H-benzo[d]imidazole-6-carboxylic acid] showed an EC50 of 4.23 nM.

In turn, `Cc1cn(C)nc1COc1cccc(-c2cc(F)c(Cc3nc4ccc(C(=O)O)cc4n3C[C@@H]3CCO3)cc2F)n1` [Example 77, (S)-2-(4-(6-((1,4-dimethyl-1H-pyrazol-3-yl)methoxy)pyridin-2-yl)-2,5-difluorobenzyl)-1-(oxetan-2-ylmethyl)-1H-benzo[d]imidazole-6-carboxylic acid] came in with a 50% effective concentration (EC50) of 6.32 nM.

Regarding `Cn1cc(Cl)c(COc2cccc(-c3cc(F)c(Cc4nc5ccc(C(=O)O)cc5n4C[C@@H]4CCO4)cc3F)n2)n1` [Example 78, (S)-2-(4-(6-((4-chloro-1-methyl-1H-pyrazol-3-yl)methoxy)pyridin-2-yl)-2,5-difluorobenzyl)-1-(oxetan-2-ylmethyl)-1H-benzo[d]imidazole-6-carboxylic acid], the EC50 was 9.4 nM.

In the case of `Cn1cc(-c2cnc(COc3cccc(-c4cc(F)c(Cc5nc6ccc(C(=O)O)cc6n5C[C@@H]5CCO5)cc4F)n3)s2)cn1` [Example 79, 2-[[2,5-difluoro-4-[6-[[5-(1-methylpyrazol-4-yl)thiazol-2-yl]methoxy]-2-pyridyl]phenyl]methyl]-3-[[(2S)-oxetan-2-yl]methyl]benzimidazole-5-carboxylic acid], the EC50 came to 0.06 nM. Against the preceding compound, the EC50 is about 160-fold lower.

In turn, `O=C(O)c1ccc2nc(Cc3cc(F)c(-c4cccc(OCc5ncc(-c6cnn(C7COC7)c6)s5)n4)cc3F)n(C[C@@H]3CCO3)c2c1` [Example 80, (S)-2-(2,5-difluoro-4-(6-((5-(1-(oxetan-3-yl)-1H-pyrazol-4-yl)thiazol-2-yl)methoxy)pyridin-2-yl)benzyl)-1-(oxetan-2-ylmethyl)-1H-benzo[d]imidazole-6-carboxylic acid] showed an EC50 of 0.19 nM.

The compound `O=C(O)c1ccc2nc(Cc3cc(F)c(-c4cccc(OCc5cc(C(F)(F)F)ns5)n4)cc3F)n(C[C@@H]3CCO3)c2c1` [Example 81, (S)-2-(2,5-difluoro-4-(6-((3-(trifluoromethyl)isothiazol-5-yl)methoxy)pyridin-2-yl)benzyl)-1-(oxetan-2-ylmethyl)-1H-benzo[d]imidazole-6-carboxylic acid] had an EC50 of 0.81 nM. This EC50 lies about 4.3-fold higher than the previous one.

`Cn1cc(-n2ccc(COc3cccc(-c4cc(F)c(Cc5nc6ccc(C(=O)O)cc6n5C[C@@H]5CCO5)cc4F)n3)n2)cn1` [Example 82, (S)-2-(2,5-difluoro-4-(6-((1′-methyl-1′H-[1,4′-bipyrazol]-3-yl)methoxy)pyridin-2-yl)benzyl)-1-(oxetan-2-ylmethyl)-1H-benzo[d]imidazole-6-carboxylic acid]: the EC50 was found to be 5.53 nM.

`O=C(O)c1ccc2nc(Cc3cc(F)c(-c4cccc(OCc5ccn(-c6cnn(C(F)F)c6)n5)n4)cc3F)n(C[C@@H]3CCO3)c2c1` [Example 83, (S)-2-(4-(6-((1′-(difluoromethyl)-1′H-[1,4′-bipyrazol]-3-yl)methoxy)pyridin-2-yl)-2,5-difluorobenzyl)-1-(oxetan-2-ylmethyl)-1H-benzo[d]imidazole-6-carboxylic acid] showed an EC50 of 3.51 nM.

As for `O=C(O)c1ccc2nc(Cc3cc(F)c(-c4cccc(OCc5ncc(-c6cnn(C(F)F)c6)s5)n4)cc3F)n(C[C@@H]3CCO3)c2c1` [Example 84, (S)-2-(4-(6-((5-(1-(difluoromethyl)-1H-pyrazol-4-yl)thiazol-2-yl)methoxy)pyridin-2-yl)-2,5-difluorobenzyl)-1-(oxetan-2-ylmethyl)-1H-benzo[d]imidazole-6-carboxylic acid], a half-maximal effect (EC50) was put at 0.07 nM. This EC50 lies about 50-fold lower than the previous one.
